Data from patent US9963445B2, “Chemical compounds” (SYNGENTA PARTICIPATIONS AG, priority 2013, dated 2018).

Tested on: Echinochloa crus-galli
Assay: Post-emergence herbicidal activity, glasshouse pot test
Type: in vivo
Parameters: key: 0 = no damage to plant, 5 = total damage to plant
Settings: Application post-emergence, rate 1000 g/ha, evaluated after 13 days
How it was run: (§1)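 Damage rated 0 (none) to 5 (total) 13 days after spraying. Plants were treated post-emergence at 8 days after sowing, using an acetone/water (50:50) formulation with 0.5% Tween 20 diluted to an aqueous spray.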

SMILES | ECHCG herbicidal damage score
COC1=C(C)C(O)N(c2cc(C)c(C(=O)NC(C)C(C)C)cn2)C1=O (stereo not drawn) [AI36] | 5
CCC(CNC(=O)c1cnc(N2C(=O)C(OC)=C(C)C2O)cc1C)C(F)(F)F (stereo not drawn) [AI37] | 5
COC1=C(C)C(O)N(c2cc(C(F)(F)F)c(C(=O)CC#N)cn2)C1=O (stereo not drawn) [AI38] | 5
COC1=C(Br)C(=O)N(c2cc(C(F)(F)F)ccn2)C1O (stereo not drawn) [AJ1, 4-bromo-2-hydroxy-3-methoxy-1-[4-(trifluoromethyl)-2-pyridyl]-2H-pyrrol-5-one] | 5
COC1=C(OC)C(O)N(c2cc(F)ccn2)C1=O (stereo not drawn) [AK3] | 5
COC1=C(OC)C(O)N(c2cc(C(F)(F)F)c(C(F)(F)F)cn2)C1=O (stereo not drawn) [AK4] | 5

Tested on: Amaranthus retroflexus
Assay: as above
Type: in vivo
Parameters: key: 0 = no damage to plant, 5 = total damage to plant
Settings: Application post-emergence, rate 1000 g/ha, evaluated after 13 days
How it was run: as §1

SMILES | AMARE herbicidal damage score
COC1=C(C)C(O)N(c2cc(C)c(C(=O)NC(C)C(C)C)cn2)C1=O (stereo not drawn) [AI36] | 5
CCC(CNC(=O)c1cnc(N2C(=O)C(OC)=C(C)C2O)cc1C)C(F)(F)F (stereo not drawn) [AI37] | 5
COC1=C(C)C(O)N(c2cc(C(F)(F)F)c(C(=O)CC#N)cn2)C1=O (stereo not drawn) [AI38] | 5
COC1=C(Br)C(=O)N(c2cc(C(F)(F)F)ccn2)C1O (stereo not drawn) [AJ1, 4-bromo-2-hydroxy-3-methoxy-1-[4-(trifluoromethyl)-2-pyridyl]-2H-pyrrol-5-one] | 5
COC1=C(OC)C(O)N(c2cc(F)ccn2)C1=O (stereo not drawn) [AK3] | 4
COC1=C(OC)C(O)N(c2cc(C(F)(F)F)c(C(F)(F)F)cn2)C1=O (stereo not drawn) [AK4] | 5

Tested on: Abutilon theophrasti
Assay: as above
Type: in vivo
Parameters: key: 0 = no damage to plant, 5 = total damage to plant
Settings: Application post-emergence, rate 1000 g/ha, evaluated after 13 days
How it was run: as §1

SMILES | ABUTH herbicidal damage score
COC1=C(C)C(O)N(c2cc(C)c(C(=O)NC(C)C(C)C)cn2)C1=O (stereo not drawn) [AI36] | 5
CCC(CNC(=O)c1cnc(N2C(=O)C(OC)=C(C)C2O)cc1C)C(F)(F)F (stereo not drawn) [AI37] | 5
COC1=C(C)C(O)N(c2cc(C(F)(F)F)c(C(=O)CC#N)cn2)C1=O (stereo not drawn) [AI38] | 4
COC1=C(Br)C(=O)N(c2cc(C(F)(F)F)ccn2)C1O (stereo not drawn) [AJ1, 4-bromo-2-hydroxy-3-methoxy-1-[4-(trifluoromethyl)-2-pyridyl]-2H-pyrrol-5-one] | 5
COC1=C(OC)C(O)N(c2cc(F)ccn2)C1=O (stereo not drawn) [AK3] | 5
COC1=C(OC)C(O)N(c2cc(C(F)(F)F)c(C(F)(F)F)cn2)C1=O (stereo not drawn) [AK4] | 5

Tested on: Setaria faberi
Assay: as above
Type: in vivo
Parameters: key: 0 = no damage to plant, 5 = total damage to plant
Settings: Application post-emergence, rate 1000 g/ha, evaluated after 13 days
How it was run: as §1

SMILES | SETFA herbicidal damage score
COC1=C(C)C(O)N(c2cc(C)c(C(=O)NC(C)C(C)C)cn2)C1=O (stereo not drawn) [AI36] | 5
CCC(CNC(=O)c1cnc(N2C(=O)C(OC)=C(C)C2O)cc1C)C(F)(F)F (stereo not drawn) [AI37] | 5
COC1=C(C)C(O)N(c2cc(C(F)(F)F)c(C(=O)CC#N)cn2)C1=O (stereo not drawn) [AI38] | 4
COC1=C(Br)C(=O)N(c2cc(C(F)(F)F)ccn2)C1O (stereo not drawn) [AJ1, 4-bromo-2-hydroxy-3-methoxy-1-[4-(trifluoromethyl)-2-pyridyl]-2H-pyrrol-5-one] | 5
COC1=C(OC)C(O)N(c2cc(F)ccn2)C1=O (stereo not drawn) [AK3] | 5
COC1=C(OC)C(O)N(c2cc(C(F)(F)F)c(C(F)(F)F)cn2)C1=O (stereo not drawn) [AK4] | 3

Tested on: zea mays
Assay: as above
Type: in vivo
Parameters: key: 0 = no damage to plant, 5 = total damage to plant
Settings: Application post-emergence, rate 1000 g/ha, evaluated after 13 days
How it was run: as §1

SMILES | ZEAMX herbicidal damage score
COC1=C(C)C(O)N(c2cc(C)c(C(=O)NC(C)C(C)C)cn2)C1=O (stereo not drawn) [AI36] | 3
CCC(CNC(=O)c1cnc(N2C(=O)C(OC)=C(C)C2O)cc1C)C(F)(F)F (stereo not drawn) [AI37] | 5
COC1=C(C)C(O)N(c2cc(C(F)(F)F)c(C(=O)CC#N)cn2)C1=O (stereo not drawn) [AI38] | 2
COC1=C(Br)C(=O)N(c2cc(C(F)(F)F)ccn2)C1O (stereo not drawn) [AJ1, 4-bromo-2-hydroxy-3-methoxy-1-[4-(trifluoromethyl)-2-pyridyl]-2H-pyrrol-5-one] | 2
COC1=C(OC)C(O)N(c2cc(F)ccn2)C1=O (stereo not drawn) [AK3] | 4
COC1=C(OC)C(O)N(c2cc(C(F)(F)F)c(C(F)(F)F)cn2)C1=O (stereo not drawn) [AK4] | 2

Tested on: Alopecurus myosuroides
Assay: as above
Type: in vivo
Parameters: key: 0 = no damage to plant, 5 = total damage to plant
Settings: Application post-emergence, rate 1000 g/ha, evaluated after 13 days
How it was run: as §1

SMILES | ALOMY herbicidal damage score
COC1=C(C)C(O)N(c2cc(C)c(C(=O)NC(C)C(C)C)cn2)C1=O (stereo not drawn) [AI36] | 5
CCC(CNC(=O)c1cnc(N2C(=O)C(OC)=C(C)C2O)cc1C)C(F)(F)F (stereo not drawn) [AI37] | 5
COC1=C(C)C(O)N(c2cc(C(F)(F)F)c(C(=O)CC#N)cn2)C1=O (stereo not drawn) [AI38] | 4
COC1=C(Br)C(=O)N(c2cc(C(F)(F)F)ccn2)C1O (stereo not drawn) [AJ1, 4-bromo-2-hydroxy-3-methoxy-1-[4-(trifluoromethyl)-2-pyridyl]-2H-pyrrol-5-one] | 5
COC1=C(OC)C(O)N(c2cc(F)ccn2)C1=O (stereo not drawn) [AK3] | 4
COC1=C(OC)C(O)N(c2cc(C(F)(F)F)c(C(F)(F)F)cn2)C1=O (stereo not drawn) [AK4] | 3

Tested on: Echinochloa crus-galli
Assay: Pre-emergence herbicidal activity, glasshouse pot test
Type: in vivo
Settings: pre-emergence spray, rate 1000 g/ha, evaluated after 13 days, scale 0-5
How it was run: (§2)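 Damage was rated at 13 days from 0 (none) to 5 (total), in a glasshouse kept at 24/16 °C, 14 h light and 65% humidity with watering twice daily. The aqueous spray of active ingredient in 50:50 acetone/water plus 0.5% Tween 20 was applied to soil one day post-sowing, before emergence.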

SMILES | ECHCG damage score, application pre-emergence
COC1=C(C)C(O)N(c2cc(C)c(C(=O)NC(C)C(C)C)cn2)C1=O (stereo not drawn) [AI36] | 4
CCC(CNC(=O)c1cnc(N2C(=O)C(OC)=C(C)C2O)cc1C)C(F)(F)F (stereo not drawn) [AI37] | 5
COC1=C(C)C(O)N(c2cc(C(F)(F)F)c(C(=O)CC#N)cn2)C1=O (stereo not drawn) [AI38] | 4
COC1=C(Br)C(=O)N(c2cc(C(F)(F)F)ccn2)C1O (stereo not drawn) [AJ1, 4-bromo-2-hydroxy-3-methoxy-1-[4-(trifluoromethyl)-2-pyridyl]-2H-pyrrol-5-one] | 5
COC1=C(OC)C(O)N(c2cc(F)ccn2)C1=O (stereo not drawn) [AK3] | 4
COC1=C(OC)C(O)N(c2cc(C(F)(F)F)c(C(F)(F)F)cn2)C1=O (stereo not drawn) [AK4] | 0

Tested on: Amaranthus retroflexus
Assay: as above
Type: in vivo
Settings: pre-emergence spray, rate 1000 g/ha, evaluated after 13 days, scale 0-5
How it was run: as §2

SMILES | AMARE damage score, application pre-emergence
COC1=C(C)C(O)N(c2cc(C)c(C(=O)NC(C)C(C)C)cn2)C1=O (stereo not drawn) [AI36] | 5
CCC(CNC(=O)c1cnc(N2C(=O)C(OC)=C(C)C2O)cc1C)C(F)(F)F (stereo not drawn) [AI37] | 5
COC1=C(C)C(O)N(c2cc(C(F)(F)F)c(C(=O)CC#N)cn2)C1=O (stereo not drawn) [AI38] | 5
COC1=C(Br)C(=O)N(c2cc(C(F)(F)F)ccn2)C1O (stereo not drawn) [AJ1, 4-bromo-2-hydroxy-3-methoxy-1-[4-(trifluoromethyl)-2-pyridyl]-2H-pyrrol-5-one] | 4
COC1=C(OC)C(O)N(c2cc(F)ccn2)C1=O (stereo not drawn) [AK3] | 5
COC1=C(OC)C(O)N(c2cc(C(F)(F)F)c(C(F)(F)F)cn2)C1=O (stereo not drawn) [AK4] | 1

Tested on: Abutilon theophrasti
Assay: as above
Type: in vivo
Settings: pre-emergence spray, rate 1000 g/ha, evaluated after 13 days, scale 0-5
How it was run: as §2

SMILES | ABUTH damage score, application pre-emergence
COC1=C(C)C(O)N(c2cc(C)c(C(=O)NC(C)C(C)C)cn2)C1=O (stereo not drawn) [AI36] | 5
CCC(CNC(=O)c1cnc(N2C(=O)C(OC)=C(C)C2O)cc1C)C(F)(F)F (stereo not drawn) [AI37] | 5
COC1=C(C)C(O)N(c2cc(C(F)(F)F)c(C(=O)CC#N)cn2)C1=O (stereo not drawn) [AI38] | 1
COC1=C(Br)C(=O)N(c2cc(C(F)(F)F)ccn2)C1O (stereo not drawn) [AJ1, 4-bromo-2-hydroxy-3-methoxy-1-[4-(trifluoromethyl)-2-pyridyl]-2H-pyrrol-5-one] | 5
COC1=C(OC)C(O)N(c2cc(F)ccn2)C1=O (stereo not drawn) [AK3] | 5
COC1=C(OC)C(O)N(c2cc(C(F)(F)F)c(C(F)(F)F)cn2)C1=O (stereo not drawn) [AK4] | 1

Tested on: Setaria faberi
Assay: as above
Type: in vivo
Settings: pre-emergence spray, rate 1000 g/ha, evaluated after 13 days, scale 0-5
How it was run: as §2

SMILES | SETFA damage score, application pre-emergence
COC1=C(C)C(O)N(c2cc(C)c(C(=O)NC(C)C(C)C)cn2)C1=O (stereo not drawn) [AI36] | 5
CCC(CNC(=O)c1cnc(N2C(=O)C(OC)=C(C)C2O)cc1C)C(F)(F)F (stereo not drawn) [AI37] | 5
COC1=C(C)C(O)N(c2cc(C(F)(F)F)c(C(=O)CC#N)cn2)C1=O (stereo not drawn) [AI38] | 3
COC1=C(Br)C(=O)N(c2cc(C(F)(F)F)ccn2)C1O (stereo not drawn) [AJ1, 4-bromo-2-hydroxy-3-methoxy-1-[4-(trifluoromethyl)-2-pyridyl]-2H-pyrrol-5-one] | 5
COC1=C(OC)C(O)N(c2cc(F)ccn2)C1=O (stereo not drawn) [AK3] | 3
COC1=C(OC)C(O)N(c2cc(C(F)(F)F)c(C(F)(F)F)cn2)C1=O (stereo not drawn) [AK4] | 0

Tested on: zea mays
Assay: as above
Type: in vivo
Settings: pre-emergence spray, rate 1000 g/ha, evaluated after 13 days, scale 0-5
How it was run: as §2

SMILES | ZEAMX damage score, application pre-emergence
COC1=C(C)C(O)N(c2cc(C)c(C(=O)NC(C)C(C)C)cn2)C1=O (stereo not drawn) [AI36] | 2
CCC(CNC(=O)c1cnc(N2C(=O)C(OC)=C(C)C2O)cc1C)C(F)(F)F (stereo not drawn) [AI37] | 2
COC1=C(C)C(O)N(c2cc(C(F)(F)F)c(C(=O)CC#N)cn2)C1=O (stereo not drawn) [AI38] | 2
COC1=C(Br)C(=O)N(c2cc(C(F)(F)F)ccn2)C1O (stereo not drawn) [AJ1, 4-bromo-2-hydroxy-3-methoxy-1-[4-(trifluoromethyl)-2-pyridyl]-2H-pyrrol-5-one] | 2
COC1=C(OC)C(O)N(c2cc(F)ccn2)C1=O (stereo not drawn) [AK3] | 2
COC1=C(OC)C(O)N(c2cc(C(F)(F)F)c(C(F)(F)F)cn2)C1=O (stereo not drawn) [AK4] | 1

Tested on: Alopecurus myosuroides
Assay: as above
Type: in vivo
Settings: pre-emergence spray, rate 1000 g/ha, evaluated after 13 days, scale 0-5
How it was run: as §2

SMILES | ALOMY damage score, application pre-emergence
COC1=C(C)C(O)N(c2cc(C)c(C(=O)NC(C)C(C)C)cn2)C1=O (stereo not drawn) [AI36] | 4
CCC(CNC(=O)c1cnc(N2C(=O)C(OC)=C(C)C2O)cc1C)C(F)(F)F (stereo not drawn) [AI37] | 4
COC1=C(C)C(O)N(c2cc(C(F)(F)F)c(C(=O)CC#N)cn2)C1=O (stereo not drawn) [AI38] | 3
COC1=C(Br)C(=O)N(c2cc(C(F)(F)F)ccn2)C1O (stereo not drawn) [AJ1, 4-bromo-2-hydroxy-3-methoxy-1-[4-(trifluoromethyl)-2-pyridyl]-2H-pyrrol-5-one] | 4
COC1=C(OC)C(O)N(c2cc(F)ccn2)C1=O (stereo not drawn) [AK3] | 2
COC1=C(OC)C(O)N(c2cc(C(F)(F)F)c(C(F)(F)F)cn2)C1=O (stereo not drawn) [AK4] | 1
